Assays:
EGFR L858R = EGFR L858R (Homo sapiens (Human), UniProt P00533, L858R); assay: Biochemical EGFR inhibition assay, EGFR L858R; conditions: Caliper mobility shift; 1.0 mM ATP or ATP Km; read-out: Enz EGFR_L858R IC50
EGFR (d746-750) = EGFR (d746-750) (Homo sapiens (Human), UniProt P00533, DEL746-750); assay: Biochemical EGFR inhibition assay, EGFR (d746-750); conditions: Caliper mobility shift; 1.0 mM ATP or ATP Km; read-out: Enz EGFR_Exon19-del746-750 IC50
[1] = target: pEGFR (Tyr1068) in PC-9 cells (Ex19Del) (Homo sapiens (Human), UniProt P00533, DEL746-750); assay: PC-9 pEGFR AlphaLISA assay; assay type: cell-based; conditions: 4 hours incubation, p-EGFR (Tyr1068) AlphaLISA, read-out: Ext pEGFR_PC-9 Ex19Del IC50
Summary of the method: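 Cells seeded in phenol-free DMEM with 10% FBS adhered overnight at 37° C./5% CO2, then were exposed for 4 hours to a 4-fold, 10-point compound dilution series. After lysis, phospho-EGFR was read by AlphaLISA SureFire Ultra, and IC50 was fitted from percent inhibition versus log concentration.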

Chain of EGFR (d746-750) (P00533 other isoform, or with tags, fused parts or gaps del 1-694/del 746-750 limits assumed): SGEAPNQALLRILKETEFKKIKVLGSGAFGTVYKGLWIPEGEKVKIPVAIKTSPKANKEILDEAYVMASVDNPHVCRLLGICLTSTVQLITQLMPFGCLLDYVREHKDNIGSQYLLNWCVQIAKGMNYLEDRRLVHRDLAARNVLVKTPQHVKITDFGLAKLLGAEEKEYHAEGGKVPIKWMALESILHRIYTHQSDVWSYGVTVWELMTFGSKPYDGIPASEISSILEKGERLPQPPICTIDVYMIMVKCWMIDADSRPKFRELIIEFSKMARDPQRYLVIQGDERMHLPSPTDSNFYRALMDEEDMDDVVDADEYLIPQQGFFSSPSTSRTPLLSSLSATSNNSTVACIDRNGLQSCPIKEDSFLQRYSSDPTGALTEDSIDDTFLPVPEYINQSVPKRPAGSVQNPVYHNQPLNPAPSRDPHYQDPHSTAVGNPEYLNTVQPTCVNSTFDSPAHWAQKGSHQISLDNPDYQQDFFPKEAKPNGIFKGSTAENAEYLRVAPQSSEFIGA
Chain of pEGFR (Tyr1068) in PC-9 cells (Ex19Del) (P00533 other isoform, or with tags, fused parts or gaps del 746-750): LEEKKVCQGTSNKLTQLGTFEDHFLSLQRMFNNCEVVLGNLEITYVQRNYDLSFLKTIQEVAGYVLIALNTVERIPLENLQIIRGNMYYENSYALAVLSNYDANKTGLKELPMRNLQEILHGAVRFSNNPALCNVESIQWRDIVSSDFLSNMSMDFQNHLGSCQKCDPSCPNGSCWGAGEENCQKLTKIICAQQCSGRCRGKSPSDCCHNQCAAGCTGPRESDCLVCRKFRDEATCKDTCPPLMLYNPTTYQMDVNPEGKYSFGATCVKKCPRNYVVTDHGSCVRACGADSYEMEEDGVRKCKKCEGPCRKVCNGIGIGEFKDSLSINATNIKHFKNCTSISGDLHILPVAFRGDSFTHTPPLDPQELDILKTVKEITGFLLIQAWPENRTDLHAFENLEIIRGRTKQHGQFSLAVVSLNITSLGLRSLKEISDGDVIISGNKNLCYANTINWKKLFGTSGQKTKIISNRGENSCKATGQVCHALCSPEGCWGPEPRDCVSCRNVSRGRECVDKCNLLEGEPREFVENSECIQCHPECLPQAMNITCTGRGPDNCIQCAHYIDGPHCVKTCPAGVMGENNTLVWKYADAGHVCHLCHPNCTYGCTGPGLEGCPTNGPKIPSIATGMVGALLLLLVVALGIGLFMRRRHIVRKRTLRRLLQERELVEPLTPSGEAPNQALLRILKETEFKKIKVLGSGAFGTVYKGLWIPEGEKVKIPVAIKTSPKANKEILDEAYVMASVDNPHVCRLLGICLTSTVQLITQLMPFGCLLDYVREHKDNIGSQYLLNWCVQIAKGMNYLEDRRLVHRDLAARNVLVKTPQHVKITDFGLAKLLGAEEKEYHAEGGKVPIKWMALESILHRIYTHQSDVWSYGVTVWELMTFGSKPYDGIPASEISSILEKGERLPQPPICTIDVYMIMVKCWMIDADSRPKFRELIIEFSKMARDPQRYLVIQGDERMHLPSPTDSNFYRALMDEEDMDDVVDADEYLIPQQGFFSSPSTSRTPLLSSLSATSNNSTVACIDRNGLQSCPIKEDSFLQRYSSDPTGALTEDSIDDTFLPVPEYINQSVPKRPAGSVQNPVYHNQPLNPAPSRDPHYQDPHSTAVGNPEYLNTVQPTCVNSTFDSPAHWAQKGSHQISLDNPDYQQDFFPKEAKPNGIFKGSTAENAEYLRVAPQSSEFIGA
Chain of EGFR L858R (P00533 25-1210 L858R): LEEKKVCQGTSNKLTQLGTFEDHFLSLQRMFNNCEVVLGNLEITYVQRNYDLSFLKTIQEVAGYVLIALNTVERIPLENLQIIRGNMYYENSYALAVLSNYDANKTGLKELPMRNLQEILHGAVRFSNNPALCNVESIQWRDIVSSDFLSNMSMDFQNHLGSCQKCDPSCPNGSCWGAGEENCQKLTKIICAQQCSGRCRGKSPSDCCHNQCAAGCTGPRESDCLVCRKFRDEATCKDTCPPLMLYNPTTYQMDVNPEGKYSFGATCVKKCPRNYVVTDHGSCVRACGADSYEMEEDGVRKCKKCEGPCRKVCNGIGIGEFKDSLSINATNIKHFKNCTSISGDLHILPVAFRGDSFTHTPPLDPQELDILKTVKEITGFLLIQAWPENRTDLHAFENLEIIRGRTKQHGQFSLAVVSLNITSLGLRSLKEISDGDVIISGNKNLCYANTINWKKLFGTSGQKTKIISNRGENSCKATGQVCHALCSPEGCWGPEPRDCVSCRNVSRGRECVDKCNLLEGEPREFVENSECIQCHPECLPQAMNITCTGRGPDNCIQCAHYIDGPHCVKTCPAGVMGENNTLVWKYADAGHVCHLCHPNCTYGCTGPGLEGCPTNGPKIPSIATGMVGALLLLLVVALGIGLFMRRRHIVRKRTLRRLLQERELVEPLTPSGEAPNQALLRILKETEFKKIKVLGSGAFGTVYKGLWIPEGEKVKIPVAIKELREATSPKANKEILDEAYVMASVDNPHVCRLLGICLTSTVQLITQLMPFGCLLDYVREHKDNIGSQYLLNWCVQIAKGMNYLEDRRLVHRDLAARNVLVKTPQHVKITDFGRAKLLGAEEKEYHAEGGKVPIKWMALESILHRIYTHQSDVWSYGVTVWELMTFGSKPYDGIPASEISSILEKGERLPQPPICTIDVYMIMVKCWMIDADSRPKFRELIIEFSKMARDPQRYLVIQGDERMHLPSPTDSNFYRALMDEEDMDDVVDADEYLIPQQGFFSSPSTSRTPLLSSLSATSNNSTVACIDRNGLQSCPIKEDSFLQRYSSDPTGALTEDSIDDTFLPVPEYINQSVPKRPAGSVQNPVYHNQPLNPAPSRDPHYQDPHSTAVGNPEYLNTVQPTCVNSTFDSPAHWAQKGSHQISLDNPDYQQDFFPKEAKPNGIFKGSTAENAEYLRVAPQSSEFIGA

| SMILES | IC50 (EGFR L858R) [nM] | IC50 (EGFR (d746-750)) [nM] | IC50 [1] [nM] |
| --- | --- | --- | --- |
| CCn1cc(-c2ncnc3cc(OC)c(NC(=O)[C@@]45COC[C@@H]4C5)cc23)c(-c2ccc(F)cc2)n1 [Example 334, (1R,5R)—N-(4-(1-ethyl-3-(4-fluorophenyl)-1H-pyrazol-4-yl)-7-methoxyquinazolin-6-yl)-3-oxabicyclo[3.1.0]hexane-1-carboxamide] | 2.4 | 1.5 | 2.2 |
| COc1cc2ncnc(-c3cn(C)nc3-c3ccccc3)c2cc1NC(=O)C12CC(C1)C2 [Example 340, N-(7-methoxy-4-(1-methyl-3-phenyl-1H-pyrazol-4-yl)quinazolin-6-yl)bicyclo[1.1.1]pentane-1-carboxamide] | 3.3 | 1.6 | 2.5 |
| COc1cc2ncnc(-c3cn(C)nc3-c3ccccc3)c2cc1OC(=O)N1CCOC[C@@H]1C [Example 62, 7-methoxy-4-(1-methyl-3-phenyl-1H-pyrazol-4-yl)quinazolin-6-yl (S)-3-methylmorpholine-4-carboxylate] | 4.2 | 2.5 | 8.7 |
| COc1cc2ncnc(-c3cn(C(F)(F)F)nc3-c3ccccc3)c2cc1NC(=O)C12CC(C1)C2 [Example 484, N-(7-methoxy-4-(3-phenyl-1-(trifluoromethyl)-1H-pyrazol-4-yl)quinazolin-6-yl)bicyclo[1.1.1]pentane-1-carboxamide] | 48.7 | 13.4 | 184 |
| COc1cc2ncnc(-c3cn(C)nc3-c3ccccc3)c2cc1NC(=O)C1(C)COC1 [Example 345, N-(7-methoxy-4-(1-methyl-3-phenyl-1H-pyrazol-4-yl)quinazolin-6-yl)-3-methyloxetane-3-carboxamide] | 4.7 | 1.9 | 7.8 |
| COc1cc2ncnc(-c3cn(CC(F)F)nc3-c3ccccc3)c2cc1C1(O)CCOCC1 [Example 127, 4-(4-(1-(2,2-difluoroethyl)-3-phenyl-1H-pyrazol-4-yl)-7-methoxyquinazolin-6-yl)tetrahydro-2H-pyran-4-ol] | 2.6 | 1.4 | 2.6 |
| COc1cc2ncnc(-c3cn(C)nc3-c3ccccc3)c2nc1NC(=O)[C@]12C[C@H]1CN(C)C2 (single isomer, unassigned) [Example 393, (1R,5R)—N-(7-methoxy-4-(1-methyl-3-phenyl-1H-pyrazol-4-yl)pyrido[3,2-d]pyrimidin-6-yl)-3-methyl-3-azabicyclo[3.1.0]hexane-1-carboxamide or (1S,5S)—N-(7-methoxy-4-(1-methyl-3-phenyl-1H-pyrazol-4-yl)pyrido[3,2-d]pyrimidin-6-yl)-3-methyl-3-azabicyclo[3.1.0]hexane-1-carboxamide] | 2.1 | 0.9 | 3.5 |
| CCOc1cc2ncnc(-c3cn(C4CC4)nc3-c3ccccc3)c2cc1CO [Example 135, (4-(1-cyclopropyl-3-phenyl-1H-pyrazol-4-yl)-7-ethoxyquinazolin-6-yl)methanol] | 1.2 | 0.7 | 3.1 |
| COc1cc2ncnc(-c3cn(C)nc3-c3ccccc3)c2cc1OC(=O)N1CCN(C)C[C@@H]1C (stereo in doubt) [Example 59, 7-methoxy-4-(1-methyl-3-phenyl-1H-pyrazol-4-yl)quinazolin-6-yl(S)-2,4-dimethylpiperazine-1-carboxylate or 7-methoxy-4-(1-methyl-3-phenyl-1H-pyrazol-4-yl)quinazolin-6-yl (R)-2,4-dimethylpiperazine-1-carboxylate] | 3.3 | 2 | 4.2 |
| COc1cc2ncnc(-c3cn(C)nc3-c3ccccc3)c2nc1O[C@@H](C)c1cnnn1C [Example 42, (S)-7-methoxy-6-(1-(1-methyl-1H-1,2,3-triazol-5-yl)ethoxy)-4-(1-methyl-3-phenyl-1H-pyrazol-4-yl)pyrido[3,2-d]pyrimidine] | 9.6 | 2.9 | 43.9 |
| CCOc1cc2ncnc(-c3cn(C)nc3-c3ccccc3)c2cc1[C@@H](C)O (single isomer, unassigned) [Example 104, (R)-1-(7-ethoxy-4-(1-methyl-3-phenyl-1H-pyrazol-4-yl)quinazolin-6-yl)ethan-1-ol or (S)-1-(7-ethoxy-4-(1-methyl-3-phenyl-1H-pyrazol-4-yl)quinazolin-6-yl)ethan-1-ol] | 2.1 | 1.3 | 5.2 |
| COc1cc2ncnc(-c3cn(C4COC4)nc3-c3ccccc3)c2cc1OC(=O)N1CCOC[C@@H]1C [Example 68, 7-methoxy-4-(1-(oxetan-3-yl)-3-phenyl-1H-pyrazol-4-yl)quinazolin-6-yl (S)-3-methylmorpholine-4-carboxylate] | 6.3 | 2.7 | 3 |
| COc1cc2ncnc(-c3cn(C)nc3-c3ccccc3)c2cc1C1=CCN(C)C1 [Example 131, 7-methoxy-6-(1-methyl-2,5-dihydro-1H-pyrrol-3-yl)-4-(1-methyl-3-phenyl-1H-pyrazol-4-yl)quinazoline] | 1.6 | 1.9 | 3.3 |
| Cc1n[nH]c(-c2ccccc2)c1-c1ncnc2cc(-c3cnn(C)c3)ccc12 [Example 479, 7-(1-methyl-1H-pyrazol-4-yl)-4-(3-methyl-5-phenyl-1H-pyrazol-4-yl)quinazoline] | 2.7 | 2.1 | 25.9 |
| COc1cc2ncnc(-c3cn(C)nc3-c3ccccc3)c2nc1NC(=O)c1cnn(C(F)(F)F)c1 [Example 360, N-(7-methoxy-4-(1-methyl-3-phenyl-1H-pyrazol-4-yl)pyrido[3,2-d]pyrimidin-6-yl)-1-(trifluoromethyl)-1H-pyrazole-4-carboxamide] | 1.8 | 1 | 2.7 |
| COc1cc2ncnc(-c3cn(C)nc3-c3ccccc3)c2cc1NC(=O)C1CC1 [Example 344, N-(7-methoxy-4-(1-methyl-3-phenyl-1H-pyrazol-4-yl)quinazolin-6-yl)cyclopropanecarboxamide] | 1.6 | 1 | 0.8 |
| COc1cc2ncnc(-c3cn(C)nc3-c3ccccc3)c2cc1NC(=O)c1ccc(C(F)F)nc1 [Example 352, 6-(difluoromethyl)-N-(7-methoxy-4-(1-methyl-3-phenyl-1H-pyrazol-4-yl)quinazolin-6-yl)nicotinamide] | 3.6 | 1.7 | 4.9 |
| COc1cc2ncnc(-c3cn(C)nc3-c3ccccc3)c2cc1N [Preparation 190] | 1.3 | 0.8 | 5.4 |
| CCC(=O)Nc1cc2c(-c3cnn(C4COC4)c3-c3ccccc3)ncnc2cc1OC [Example 499] | 17 | 33 | 495 |
| CCOc1cc2ncnc(-c3cn(C)nc3-c3ccccc3)c2cc1OC [Example 25, 7-ethoxy-6-methoxy-4-(1-methyl-3-phenyl-1H-pyrazol-4-yl)quinazoline] | 1.4 | 0.9 | 2.1 |
| CCn1cc(-c2ncnc3cc(OC)c(NC(=O)[C@@]45COC[C@@H]4C5)nc23)c(-c2ccccc2)n1 (single isomer, unassigned) [Example 389, (1R,5R)—N-(4-(1-ethyl-3-phenyl-1H-pyrazol-4-yl)-7-methoxypyrido[3,2-d]pyrimidin-6-yl)-3-oxabicyclo[3.1.0]hexane-1-carboxamide or (1S,5S)—N-(4-(1-ethyl-3-phenyl-1H-pyrazol-4-yl)-7-methoxypyrido[3,2-d]pyrimidin-6-yl)-3-oxabicyclo[3.1.0]hexane-1-carboxamide] | 6.4 | 0.7 | 0.4 |
| COc1cc2ncnc(-c3cn(C)nc3-c3ccccc3)c2nc1OC(=O)N1CCOC[C@H]1C [Example 56, 7-methoxy-4-(1-methyl-3-phenyl-1H-pyrazol-4-yl)pyrido[3,2-d]pyrimidin-6-yl (R)-3-methylmorpholine-4-carboxylate] | 3.4 | 2.1 | 3 |
| CCOc1cc2ncnc(-c3cn(C)nc3-c3ccccc3)c2cc1N1CCN(C)C[C@@H]1C [Example 174, (S)-6-(2,4-dimethylpiperazin-1-yl)-7-ethoxy-4-(1-methyl-3-phenyl-1H-pyrazol-4-yl)quinazoline] | 2.8 | 2.3 | 3.4 |
| COc1cc2ncnc(-c3cn(C)nc3-c3ccccc3)c2cc1[C@@H]1CN(C)CCO1 [Example 130, (R)-2-(7-methoxy-4-(1-methyl-3-phenyl-1H-pyrazol-4-yl)quinazolin-6-yl)-4-methylmorpholine] | 21.5 | 5.2 | 16.1 |
| COc1cc2ncnc(-c3cn(CC4CC4)nc3-c3ccccc3)c2nc1NC(=O)[C@]12C[C@H]1CN(C)C2 (single isomer, unassigned) [Example 409, (1S,5S)—N-(4-(1-(cyclopropylmethyl)-3-phenyl-1H-pyrazol-4-yl)-7-methoxypyrido[3,2-d]pyrimidin-6-yl)-3-methyl-3-azabicyclo[3.1.0]hexane-1-carboxamide or (1R,5R)—N-(4-(1-(cyclopropylmethyl)-3-phenyl-1H-pyrazol-4-yl)-7-methoxypyrido[3,2-d]pyrimidin-6-yl)-3-methyl-3-azabicyclo[3.1.0]hexane-1-carboxamide] | 1 | 0.6 | 0.8 |
| COc1cc2ncnc(-c3cn(C)nc3-c3ccccc3)c2cc1-c1ccc(OC)c2n[nH]cc12 [Example 151, 7-methoxy-6-(7-methoxy-2H-indazol-4-yl)-4-(1-methyl-3-phenyl-1H-pyrazol-4-yl)quinazoline] | 8.2 | 1.9 | 8.7 |
